# Assay results taken from patent US8952024B2, “Herbicidal pyrimidone derivatives” (E I du Pont de Nemours and Company, priority 2009, dated 2015).
# Columns and labels:
# Assay in all cases: Test B pre-/postemergence plant response
# Type in all cases: in vivo
# [1] = test system: goosegrass (Eleusine indica)
# Method in brief: (§1)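 Greenhouse herbicide screen. Pre- and postemergence (1- to 4-leaf) spray of compound in solvent/surfactant mixture; loam–sand soil for pre, peat/vermiculite medium for post. Visual control rating 0–100 at 13 to 15 days after treatment.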
# [2] = test system: large crabgrass (Digitaria sanguinalis)
# Method in brief: as §1
# [3] = test system: ragweed (common ragweed, Ambrosia elatior)
# Method in brief: as §1
# [4] = test system: yellow nutsedge (Cyperus esculentus)
# Method in brief: as §1
# [5] = test system: green foxtail (Setaria viridis)
# Method in brief: as §1
# [6] = test system: morningglory (Ipomoea coccinea)
# Method in brief: as §1
# [7] = test system: bermudagrass (Cynodon dactylon)
# Method in brief: as §1
# [8] = test system: downy bromegrass (Bromus tectorum)
# Method in brief: as §1
# [9] = test system: johnsongrass (Sorghum halepense)
# Method in brief: as §1
# [10] = test system: woolly cupgrass (Eriochloa villosa)
# Method in brief: as §1
# corn (Zea mays) = test system: corn (Zea mays)
# Method in brief: as §1
# [11] = test system: giant foxtail (Setaria faberii)
# Method in brief: as §1
# [12] = test system: Italian ryegrass (Lolium multiflorum)
# Method in brief: as §1
# [13] = 62 g ai/ha, postemergence, 0 is no effect, 100 is complete control, 13 to 15 days
# [14] = Postemergence, 31 g ai/ha, 0 to 100 scale (0 no effect, 100 complete control)
# [15] = Postemergence, 125 g ai/ha, scale 0 to 100 (0 no effect, 100 complete control)
# [16] = Postemergence, 250 g ai/ha, scale 0 to 100 (0 no effect, 100 complete control), 13 to 15 days
# [17] = 250 g ai/ha, Preemergence, 0 to 100 scale
# [18] = Postemergence, 31 g ai/ha, scale 0 to 100 (0 no effect, 100 complete control)
# [19] = Postemergence, 62 g ai/ha, scale 0 (no effect) to 100 (complete control), 13 to 15 days
# [20] = Postemergence, 125 g ai/ha, visual rating after 13 to 15 days, scale 0 (no effect) to 100 (complete control)
# [21] = Postemergence, 250 g ai/ha, scale 0 to 100
# [22] = Preemergence, 31 g ai/ha, scale 0 to 100 (0 no effect, 100 complete control)
# [23] = Preemergence, 125 g ai/ha, 0 to 100 scale
# [24] = Preemergence, 62 g ai/ha, scale 0 to 100 (0 no effect, 100 complete control)
compound,measurement,setting,value
CCCn1c(-c2cccc(C(F)(F)F)c2)ncc(C(=O)C2=C(O)CCCC2=O)c1=O [Compound 155],Goosegrass plant response rating (0 to 100 scale),[1]; [13],80
same,"Plant response rating, Goosegrass",[1]; [14],65
same,"Plant response rating, Goosegrass",[1]; [15],85
same,"Plant response rating, Goosegrass",[1]; [16],98
same,"Crabgrass, Large plant response rating (0 to 100 scale)",[2]; [13],75
same,"Plant response rating, Crabgrass, Large",[2]; [14],60
same,"Plant response rating, Crabgrass, Large",[2]; [15],80
same,"Plant response rating, Crabgrass, Large",[2]; [16],90
same,Ragweed plant response rating (0 to 100 scale),[3]; [13],70
same,"Plant response rating, Ragweed",[3]; [14],45
same,"Plant response rating, Ragweed",[3]; [15],90
same,"Plant response rating, Ragweed",[3]; [16],95
same,"Nutsedge, Yellow plant response rating (0 to 100 scale)",[4]; [13],45
same,"Plant response rating, Nutsedge, Yellow",[4]; [14],20
same,"Plant response rating, Nutsedge, Yellow",[4]; [15],70
same,"Plant response rating, Nutsedge, Yellow",[4]; [16],75
same,"Foxtail, Green plant response rating (0 to 100 scale)",[5]; [13],50
same,"Plant response rating, Foxtail, Green",[5]; [14],25
same,"Plant response rating, Foxtail, Green",[5]; [15],80
same,"Plant response rating, Foxtail, Green",[5]; [16],80
same,Morningglory plant response rating (0 to 100 scale),[6]; [13],85
same,"Plant response rating, Morningglory",[6]; [14],55
same,"Plant response rating, Morningglory",[6]; [15],100
same,"Plant response rating, Morningglory",[6]; [16],100
same,Bermudagrass plant response rating (0 to 100 scale),[7]; [13],98
same,"Plant response rating, Bermudagrass",[7]; [14],85
same,"Plant response rating, Bermudagrass",[7]; [15],98
same,"Plant response rating, Bermudagrass",[7]; [16],100
same,"Bromegrass, Downy plant response rating (0 to 100 scale)",[8]; [13],30
same,"Plant response rating, Bromegrass, Downy",[8]; [14],5
same,"Plant response rating, Bromegrass, Downy",[8]; [15],35
same,"Plant response rating, Bromegrass, Downy",[8]; [16],50
same,Johnsongrass plant response rating (0 to 100 scale),[9]; [13],40
same,"Plant response rating, Johnsongrass",[9]; [14],10
same,"Plant response rating, Johnsongrass",[9]; [15],65
same,"Plant response rating, Johnsongrass",[9]; [16],70
same,"Cupgrass, Woolly plant response rating (0 to 100 scale)",[10]; [13],45
same,"Plant response rating, Cupgrass, Woolly",[10]; [14],20
same,"Plant response rating, Cupgrass, Woolly",[10]; [15],65
same,"Plant response rating, Cupgrass, Woolly",[10]; [16],75
same,Corn plant response rating (0 to 100 scale),corn (Zea mays); [13],25
same,"Plant response rating, Corn",corn (Zea mays); [14],5
same,"Plant response rating, Corn",corn (Zea mays); [15],40
same,"Plant response rating, Corn",corn (Zea mays); [16],65
same,"Foxtail, Giant plant response rating (0 to 100 scale)",[11]; [13],80
same,"Plant response rating, Foxtail, Giant",[11]; [14],65
same,"Plant response rating, Foxtail, Giant",[11]; [15],90
same,"Plant response rating, Foxtail, Giant",[11]; [16],95
same,"Ryegrass, Italian plant response rating (0 to 100 scale)",[12]; [13],30
same,"Plant response rating, Ryegrass, Italian",[12]; [14],5
same,"Plant response rating, Ryegrass, Italian",[12]; [15],40
same,"Plant response rating, Ryegrass, Italian",[12]; [16],60
Cc1ccccc1-n1c(-c2ccccc2)ncc(C(=O)C2=C(O)CCCC2=O)c1=O [Compound 12],"Plant response rating, Goosegrass",[1]; [17],100
same,"Plant response rating, Goosegrass",[1]; [18],70
same,"Plant response rating, Goosegrass",[1]; [19],85
same,"Plant response rating, Goosegrass",[1]; [20],98
same,Goosegrass plant response rating,[1]; [21],100
same,"Plant response rating, Goosegrass",[1]; [22],85
same,Goosegrass plant response rating,[1]; [23],100
same,"Plant response rating, Crabgrass, Large",[2]; [17],100
same,"Plant response rating, Crabgrass, Large",[2]; [18],65
same,"Plant response rating, Crabgrass, Large",[2]; [19],75
same,"Plant response rating, Crabgrass, Large",[2]; [20],80
same,"Crabgrass, Large plant response rating",[2]; [21],90
same,"Plant response rating, Crabgrass, Large",[2]; [22],0
same,"Plant response rating, Crabgrass, Large",[2]; [24],90
same,"Crabgrass, Large plant response rating",[2]; [23],100
same,"Plant response rating, Ragweed",[3]; [17],100
same,"Plant response rating, Ragweed",[3]; [18],100
same,"Plant response rating, Ragweed",[3]; [19],100
same,"Plant response rating, Ragweed",[3]; [20],100
same,Ragweed plant response rating,[3]; [21],100
same,"Plant response rating, Ragweed",[3]; [22],90
same,"Plant response rating, Ragweed",[3]; [24],98
same,Ragweed plant response rating,[3]; [23],100
same,"Plant response rating, Nutsedge, Yellow",[4]; [17],90
same,"Plant response rating, Nutsedge, Yellow",[4]; [18],15
same,"Plant response rating, Nutsedge, Yellow",[4]; [19],55
same,"Plant response rating, Nutsedge, Yellow",[4]; [20],65
same,"Nutsedge, Yellow plant response rating",[4]; [21],80
same,"Plant response rating, Nutsedge, Yellow",[4]; [22],25
same,"Plant response rating, Nutsedge, Yellow",[4]; [24],60
same,"Nutsedge, Yellow plant response rating",[4]; [23],75
same,"Plant response rating, Foxtail, Green",[5]; [17],80
same,"Plant response rating, Foxtail, Green",[5]; [18],40
same,"Plant response rating, Foxtail, Green",[5]; [19],60
same,"Plant response rating, Foxtail, Green",[5]; [20],70
same,"Foxtail, Green plant response rating",[5]; [21],70
same,"Plant response rating, Foxtail, Green",[5]; [22],0
same,"Plant response rating, Foxtail, Green",[5]; [24],0
same,"Foxtail, Green plant response rating",[5]; [23],40
same,"Plant response rating, Morningglory",[6]; [17],100
same,"Plant response rating, Morningglory",[6]; [18],15
same,"Plant response rating, Morningglory",[6]; [19],60
same,"Plant response rating, Morningglory",[6]; [20],70
same,Morningglory plant response rating,[6]; [21],95
same,"Plant response rating, Morningglory",[6]; [22],40
same,"Plant response rating, Morningglory",[6]; [24],55
same,Morningglory plant response rating,[6]; [23],85
same,"Plant response rating, Bermudagrass",[7]; [17],100
same,"Plant response rating, Bermudagrass",[7]; [18],65
same,"Plant response rating, Bermudagrass",[7]; [19],85
same,"Plant response rating, Bermudagrass","[7]; Postemergence, 125 g ai/ha, scale 0 to 100 (0 no effect, 100 complete control), 13 to 15 days",98
same,Bermudagrass plant response rating,[7]; [21],100
same,"Plant response rating, Bermudagrass",[7]; [22],100
same,"Plant response rating, Bermudagrass",[7]; [24],100
same,Bermudagrass plant response rating,[7]; [23],100
same,"Plant response rating, Bromegrass, Downy",[8]; [17],0
same,"Plant response rating, Bromegrass, Downy",[8]; [18],5
same,"Plant response rating, Bromegrass, Downy",[8]; [19],10
same,"Plant response rating, Bromegrass, Downy",[8]; [20],20
same,"Bromegrass, Downy plant response rating",[8]; [21],20
same,"Plant response rating, Bromegrass, Downy",[8]; [22],0
same,"Plant response rating, Bromegrass, Downy",[8]; [24],0
same,"Bromegrass, Downy plant response rating",[8]; [23],0
same,"Plant response rating, Johnsongrass",[9]; [17],98
same,"Plant response rating, Johnsongrass",[9]; [18],55
same,"Plant response rating, Johnsongrass",[9]; [19],60
same,"Plant response rating, Johnsongrass",[9]; [20],60
same,Johnsongrass plant response rating,[9]; [21],75
same,"Plant response rating, Johnsongrass",[9]; [22],0
same,"Plant response rating, Johnsongrass",[9]; [24],0
same,Johnsongrass plant response rating,[9]; [23],75
same,"Plant response rating, Cupgrass, Woolly",[10]; [17],85
same,"Plant response rating, Cupgrass, Woolly",[10]; [18],55
same,"Plant response rating, Cupgrass, Woolly",[10]; [19],60
same,"Plant response rating, Cupgrass, Woolly",[10]; [20],70
same,"Cupgrass, Woolly plant response rating",[10]; [21],80
same,"Plant response rating, Cupgrass, Woolly",[10]; [22],0
same,"Plant response rating, Cupgrass, Woolly",[10]; [24],10
same,"Cupgrass, Woolly plant response rating",[10]; [23],75
same,"Plant response rating, Corn",corn (Zea mays); [17],75
same,"Plant response rating, Corn",corn (Zea mays); [18],25
same,"Plant response rating, Corn",corn (Zea mays); [19],30
same,"Plant response rating, Corn",corn (Zea mays); [20],45
same,Corn plant response rating,corn (Zea mays); [21],75
same,"Plant response rating, Corn",corn (Zea mays); [22],0
same,"Plant response rating, Corn",corn (Zea mays); [24],0
same,Corn plant response rating,corn (Zea mays); [23],15
same,"Plant response rating, Foxtail, Giant",[11]; [17],100
same,"Plant response rating, Foxtail, Giant",[11]; [18],75
same,"Plant response rating, Foxtail, Giant",[11]; [19],90
same,"Plant response rating, Foxtail, Giant",[11]; [20],98
same,"Foxtail, Giant plant response rating",[11]; [21],98
same,"Plant response rating, Foxtail, Giant",[11]; [22],0
same,"Plant response rating, Foxtail, Giant",[11]; [24],20
same,"Foxtail, Giant plant response rating",[11]; [23],70
same,"Plant response rating, Ryegrass, Italian",[12]; [17],0
same,"Plant response rating, Ryegrass, Italian",[12]; [18],0
same,"Plant response rating, Ryegrass, Italian",[12]; [19],0
same,"Plant response rating, Ryegrass, Italian",[12]; [20],5
same,"Ryegrass, Italian plant response rating",[12]; [21],5
same,"Plant response rating, Ryegrass, Italian",[12]; [22],0
same,"Plant response rating, Ryegrass, Italian",[12]; [24],0
same,"Ryegrass, Italian plant response rating",[12]; [23],0
